Reference: patent US10420749B2, “Crystalline form of lorlatinib free base” (Pfizer Inc., priority 2015, dated 2019)
“Also recorded” adds a separate entry of the source. One block for each compound: values may come before it.

How the values were obtained:
Type in all cases: physicochemical
[1] = Solid-state physical stability of Form 7 API at elevated humidity / accelerated conditions
From the text: The physical stability of anhydrous lorlatinib free base (Form 7) API was investigated at elevated relative humidities (% RH) for extended time period and at accelerated stability conditions for shorter period.

[2] = Physical stability in the drug product by FT-Raman and Solid State NMR spectroscopy; details: for amount of physical impurity: in drug product
From the text: The physical stabilities of lorlatinib Form 7 and acetic acid solvate in the drug product were investigated under a variety of conditions using FT-Raman and Solid State NMR spectroscopy.

[3] = Thermodynamic stability: slurry experiments, solid form evaluated by PXRD; details: for Slurry Output (solid form): 2 weeks
Procedure: The thermodynamic stability of anhydrous lorlatinib free base (Form 7) was evaluated employing slurry experiments under a range of water activity and temperature conditions. […] After 2 weeks, the solids in equilibrium were isolated and the solid form was evaluated by PXRD.

- Solid Form after storage (physical stability) ([1]; 80° C./40% RH, 1 week): Form 7
- Physical change after storage (physical stability) ([1]; 80° C./75% RH, 1 week (as printed in text)): did not undergo any physical change
- amount of physical impurity ([2]; 25° C./60% RH, 12 months): No change detected
- amount of physical impurity ([2]; 30° C./65% RH, 12 months): No change detected
- amount of physical impurity ([2]; 50° C./75% RH, 2 weeks): No change detected
- amount of physical impurity ([2]; 70° C./10% RH, 3 weeks): No change detected
- amount of physical impurity ([2]; 70° C./40% RH, 2 weeks): No change detected
- amount of physical impurity ([2]; 70° C./75% RH, 1 week): No change detected
- physical stability relative to the acetic acid solvate of lorlatinib free base ([2]; representative drug product formulation): superior physical stability
- Slurry Output (solid form) ([3]; IPA, water activity 0.25, 5° C.): Form 16
- Slurry Output (solid form) ([3]; IPA, water activity 0.25, 40° C.): Form 7
- Slurry Output (solid form) ([3]; IPA, water activity 0.25, RT): Form 7
- Slurry Output (solid form) ([3]; IPA, water activity 0.50, 5° C.): Form 13
- Slurry Output (solid form) ([3]; IPA, water activity 0.50, 40° C.): Form 5
- Slurry Output (solid form) ([3]; IPA, water activity 0.50, RT): Form 13
- Slurry Output (solid form) ([3]; IPA, water activity 0.70, 5° C.): Form 13
- Slurry Output (solid form) ([3]; IPA, water activity 0.70, 40° C.): Form 5
- Slurry Output (solid form) ([3]; IPA, water activity 0.70, RT): Form 13
- Slurry Output (solid form) ([3]; IPA, water activity 0.90, 5° C.): Form 13
- Slurry Output (solid form) ([3]; IPA, water activity 0.90, 40° C.): Form 13
- Slurry Output (solid form) ([3]; IPA, water activity 0.90, RT): Form 13
- Slurry Output (solid form) ([3]; MiBK, water activity 0, 5° C.): Form 7
- Slurry Output (solid form) ([3]; MiBK, water activity 0, 40° C.): Form 7
- Slurry Output (solid form) ([3]; MiBK, water activity 0, RT): Form 7
- Slurry Output (solid form) ([3]; TBME, water activity 0, 5° C.): Form 7
- Slurry Output (solid form) ([3]; TBME, water activity 0, 40° C.): Form 7
- Slurry Output (solid form) ([3]; TBME, water activity 0, RT): Form 7
- Slurry Output (solid form) ([3]; Toluene, water activity 0, 5° C.): Form 7
- Slurry Output (solid form) ([3]; Toluene, water activity 0, 40° C.): Form 7
- Slurry Output (solid form) ([3]; Toluene, water activity 0, RT): Form 7
- Slurry Output (solid form) ([3]; Water, water activity 1.00, 5° C.): Form 7 + Form 18
- Slurry Output (solid form) ([3]; Water, water activity 1.00, 40° C.): Form 7
- Slurry Output (solid form) ([3]; Water, water activity 1.00, RT): Form 18
- Slurry Output (solid form) ([3]; iProAc, water activity 0, 5° C.): Form 7
- Slurry Output (solid form) ([3]; iProAc, water activity 0, 40° C.): Form 7
- Slurry Output (solid form) ([3]; iProAc, water activity 0, RT): Form 7
- Slurry Output (solid form) ([3]; nBuOH, water activity 0, 5° C.): Form 7
- Slurry Output (solid form) ([3]; nBuOH, water activity 0, 40° C.): Form 7
- Slurry Output (solid form) ([3]; nBuOH, water activity 0, RT): Form 20
SMILES: C[C@H]1Oc2cc(cnc2N)-c2c(nn(C)c2C#N)CN(C)C(=O)c2ccc(F)cc21 [Form 7, (10R)-7-amino-12-fluoro-2,10,16-trimethyl-15-oxo-10,15,16,17-tetrahydro-2H-8,4-(metheno)pyrazolo[4,3-h][2,5,11]benzoxadiazacyclotetradecine-3-carbonitrile]
- Solid Form after storage (physical stability) ([1]; 70° C./75% RH, 1 week): did not undergo any physical change; also recorded: Form 7
- Solid Form after storage (physical stability) ([1]; 75% RH, ambient temperature, 12 months): did not undergo any physical change; also recorded: Form 7
- Solid Form after storage (physical stability) ([1]; 90% RH, ambient temperature, 12 months): did not undergo any physical change; also recorded: Form 7
- Thermodynamic stability, overall outcome of slurry experiments ([3]; diverse solvent systems, 5° C., room temperature and 40° C., water activities 0.25 to 1.00, 2 weeks): does not convert to a different anhydrous solid state

- amount of physical impurity ([2]; 70° C./10% RH, 3 weeks): impurity >50%
- amount of physical impurity ([2]; 70° C./40% RH, 2 weeks): impurity >50%
- amount of physical impurity ([2]; 70° C./75% RH, 1 week): impurity >50%
SMILES: CC(=O)O.C[C@H]1Oc2cc(cnc2N)-c2c(nn(C)c2C#N)CN(C)C(=O)c2ccc(F)cc21 [lorlatinib acetic acid solvate, reference compound]
